Molecular target: T1, NEK6 (Homo sapiens, UniProt Q9HC98)
T1 construct: purchased Thermo Fisher Scientific (Life Technologies) SelectScreen
Experiment: SelectScreen Z'LYTE
Assay type: biochemical
Procedure, shortened: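 SelectScreen broad panel; activity (Z'LYTE, Adapta) plus binding formats. ATP: Km app for CSF1R Z'LYTE; 10 for CAMK1 Adapta. Readout = % per kinase.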

T1 sequence (Q9HC98 whole entry): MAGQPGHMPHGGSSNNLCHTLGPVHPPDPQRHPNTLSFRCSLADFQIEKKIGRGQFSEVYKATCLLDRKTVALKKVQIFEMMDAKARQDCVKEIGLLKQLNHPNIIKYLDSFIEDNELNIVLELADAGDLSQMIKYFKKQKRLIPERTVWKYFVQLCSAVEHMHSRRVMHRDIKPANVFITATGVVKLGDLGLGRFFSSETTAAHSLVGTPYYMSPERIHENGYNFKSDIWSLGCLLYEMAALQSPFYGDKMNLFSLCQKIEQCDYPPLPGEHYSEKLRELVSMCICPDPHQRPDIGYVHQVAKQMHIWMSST

CN(C(=O)CN1CCOCC1)c1ccc2sc3c(-c4cccc5c(=O)cc(N6CC7CCC(C6)O7)oc45)cccc3c2c1 [NU5455]
inhibition at 1 µM: -19.8%
